Laboratory results: patent publication US10155990B2, “Method for predicting therapeutic efficacy of PI3K/AKT/mTOR inhibitor on basis of PHLDA1 or PIK3C2B expression” (Taiho Pharmaceutical Co., Ltd., priority 2013, dated 2018)

Columns and labels:
Format in all cases: cell-based
[1] = test system: panel of 240 cell lines composed of various cancers; test: GI50 versus PHLDA1/PIK3C2B expression in a panel of 240 cell lines (OncoPanel, Ricerca Biosciences); details: panel of 240 cell lines of various cancers
From the text: It was also examined whether the expression level of PHLDA1 or PIK3C2B has a correlation with the sensitivity to PI3K/AKT/mTOR inhibitors in a panel of 240 cell lines (OncoPanel™, Ricerca Biosciences) composed of various cancers such as lung cancer, kidney cancer, liver cancer, pancreatic cancer, large bowel cancer, bladder cancer, breast cancer, head and neck cancer, prostate cancer, skin cancer, blood cancer, and malignant lymphoma.

[2] = test system: 37 cell lines from human breast cancer; test: Cytotoxicity assay (CellTiter-Glo, GI50) in 37 human breast cancer cell lines, related to PHLDA1/PIK3C2B expression, PIK3CA mutation, PTEN deletion
Protocol: A cytotoxicity assay was conducted as described below using 37 cell lines from human breast cancer (AU565, BT20, BT474, BT549, CAMA-1, DU4475, HCC1187, HCC1419, HCC1428, HCC1500, HCC1569, HCC1599, HCC1806, HCC1937, HCC1954, HCC202, HCC2218, HCC38, HCC70, MDA-MB-157, MDA-MB-175, MDA-MB-231, MDA-MB-361, MDA-MB-415, MDA-MB-436, MDA-MB-453, MDA-MB-468, UACC-812, and UACC-893 (all obtained from American Type Culture Collection (ATCC); MCF-7, SK-BR-3, T47D, and ZR-75-1 (all obtained from Sumitomo Dainippon Pharma Co., Ltd.); KPL-1, KPL-3C, and KPL-4 (provided by Dr. Kurebayashi at Kawasaki Medical School)). Each cell line was seeded into a 96-well flat-bottom microplate in an amount of 150 μL, and cultured in an incubator containing 5% carbon dioxide gas at 37° C. for one day. PI3K/AKT/mTOR inhibitors (AKT inhibitor: Compound-I, MK-2206, PI3K-mTOR dual inhibitor: BEZ235, PI3K inhibitor: GDC-0941, mTOR inhibitor: sirolimus) diluted stepwise with dimethylsulfoxide, paclitaxel diluted stepwise with dimethylsulfoxide, and dimethylsulfoxide were individually added to respective media for the cell lines. 50 μL of each of the media was added to the wells of the aforementioned 96-well flat-bottom microplate so that the final concentration of each drug became 10,000, 3,000, 1,000, 300, 100, 30, 3, and 1 nM. A separately prepared 96-well flat-bottom microplate in which each cell line was cultured for one day was allowed to stand at room temperature for 30 minutes, and 50 μL of the supernatant was removed from each well to leave 100 μL of the cell culture solution. […] The microplate was allowed to stand in a dark place for 10 minutes, and then the luminescence intensity of live cells of each well to which the drug were added was measured using a microplate reader (PerkinElmer, ARVOsx). […] The microplate was allowed to stand in a dark place for 10 minutes, and then the luminescence intensity of live cells of each well was measured using a microplate reader. […]
Subsequently, the expression level of PHLDA1 and PIK3C2B in the 37 cell lines from human breast cancer was measured. […]

[3] = test system: human breast cancer cell line HCC1187; test: Cytotoxicity after PIK3C2B gene knockdown, HCC1187; details: relative cell count after three days, FIG. 3
[4] = test system: human ovarian cancer cell line OVCAR-3; test: Cytotoxicity after PIK3C2B gene knockdown, OVCAR-3; details: relative cell count after three days, FIG. 3
[5] = 37 human breast cancer cell lines, 3 days drug exposure, FIG. 1

| SMILES | Correlation between logarithm of GI50 and logarithm of expression level of PHLDA1 [1] | Correlation between logarithm of GI50 and logarithm of expression level of PIK3C2B [1] | Pearson correlation between logarithm of GI50 and logarithm of expression level of PHLDA1 [2, 5] | Pearson correlation between logarithm of GI50 and logarithm of expression level of PIK3C2B [2, 5] | Change in sensitivity to drug caused by PIK3C2B gene knockdown [3] | Change in sensitivity to drug caused by PIK3C2B gene knockdown [4] | Correlation of PTEN deletion with sensitivity (GI50) ([2]; 36 cell lines, PTEN deletion in 8 cell lines, FIG. 4) |
| --- | --- | --- | --- | --- | --- | --- | --- |
| Cn1c(=O)n(-c2ccc(C(C)(C)C#N)cc2)c2c3cc(-c4cnc5ccccc5c4)ccc3ncc21 [BEZ235, dactolisib] | significant correlation | significant correlation |  |  |  |  |  |
| NC1(c2ccc(-c3nc4ccn5c(=O)[nH]nc5c4cc3-c3ccccc3)cc2)CCC1 [MK-2206] | significant correlation | significant correlation |  |  |  |  |  |
| CC(=O)O[C@H]1C(=O)[C@@]2(C)[C@H]([C@H](OC(=O)c3ccccc3)[C@]3(O)C[C@H](OC(=O)[C@H](O)[C@@H](NC(=O)c4ccccc4)c4ccccc4)C(C)=C1C3(C)C)[C@]1(OC(C)=O)CO[C@@H]1C[C@@H]2O [paclitaxel] |  |  | did not show a correlation | did not show a correlation | almost no change | almost no change |  |
| CS(=O)(=O)N1CCN(Cc2cc3nc(-c4cccc5[nH]ncc45)nc(N4CCOCC4)c3s2)CC1 [GDC-0941, pictilisib] | significant correlation | significant correlation |  |  | decrease in sensitivity | decrease in sensitivity |  |
| CC1(O)CC(N)(c2ccc(-c3nc4n(c3-c3ccccc3)COc3ccncc3-4)cc2)C1 (stereo not drawn) [Compound-I, trans-3-amino-1-methyl-3-(4-(3-phenyl-5H-imidazo[1,2-c]pyrido[3,4-e][1,3]oxazin-2-yl)phenyl)cyclobutanol] | significant correlation | significant correlation |  |  | decrease in sensitivity | decrease in sensitivity | did not show a correlation |
